# Experimental data: paper PMC11672637, “7-O-Carboxylic Acid-Substituted 3-O-Alkyl Difluoroquercetin; An Aztreonam-Potentiating Agent Against Carbapenemase-Producing Pseudomonas aeruginosa Through Simultaneous Inhibition of Metallo-β-Lactamase and Efflux Pump” (Antibiotics, 2024)
# Where two headings read alike, the source gives them in different places.
# Key:
# Format in all cases: cell-based, P. aeruginosa
# [1] = system: PA-003, blaVIM; assay: MIC / checkerboard with ATM; conditions: PA-003
# [2] = system: PA-036, blaNDM; assay: MIC / checkerboard with ATM; conditions: for MIC: Pseudomonas aeruginosa, read-out: MIC of ATM with 5, PA-036
# [3] = system: PA-042, blaIMP/NDM; assay: MIC / checkerboard with ATM; conditions: for MIC: Pseudomonas aeruginosa, read-out: MIC of ATM with 5, PA-042
# [4] = system: PA-030, blaIMP; assay: MIC / checkerboard with ATM; conditions: for MIC: Pseudomonas aeruginosa, read-out: MIC of ATM with 5, PA-030
# [5] = system: PA-028, blaNDM; assay: MIC / checkerboard with ATM; conditions: for MIC: Pseudomonas aeruginosa, read-out: MIC of ATM with 5, PA-028
# [6] = system: PA-033, blaNDM; assay: MIC / checkerboard with ATM; conditions: for MIC: Pseudomonas aeruginosa, read-out: MIC of ATM with 5, PA-033
# [7] = system: PA-039, blaNDM; assay: MIC / checkerboard with ATM; conditions: for MIC: Pseudomonas aeruginosa, read-out: MIC of ATM with 5, PA-039
# [8] = system: All CPPA (n = 26); assay: MIC distribution over clinical isolates; conditions: for inhibition at 1 µg/mL / inhibition at 2 µg/mL / inhibition at 4 µg/mL: Pseudomonas aeruginosa; for inhibition at 1 µg/mL: read-out: Cumulative % inhibition by ATM, 5 at 1 mg/L; for inhibition at 2 µg/mL: read-out: Cumulative % inhibition by ATM, 5 at 2 mg/L; for inhibition at 4 µg/mL: read-out: Cumulative % inhibition by ATM, 5 at 4 mg/L
compound,measurement,setting,value
"CC(C)(C)CCOc1c(-c2ccc(F)c(F)c2)oc2cc(OCC(=O)O)cc(O)c2c1=O [Compound 5, 2-((2-(3,4-Difluorophenyl)-3-(3,3-dimethylbutoxy)-5-hydroxy-4-oxo-4H-chromen-7-yl)oxy)acetic Acid]",Activity (FICI class),[1],"I (I (indifference, 0.5 < FICI ≤ 4))"
same,Concentrations of ATM and 5 at lowest FICI (ATM/5),[1],16/1
same,Minimum concentration of 5 to make sensitive to ATM,[1],1 mg/L
same,MIC of ATM with 5,[1]; 5 at 2 mg/L,16 µg/mL
same,MIC of ATM with 5,[1]; 5 at 4 mg/L,16 µg/mL
same,MIC of ATM with 5,[1]; 5 at 8 mg/L,16 µg/mL
same,MIC of ATM with 5,[1]; 5 at 16 mg/L,16 µg/mL
same,MIC of ATM with 5,[1]; 5 at 32 mg/L,16 µg/mL
same,MIC of ATM with 5,[1]; 5 at 64 mg/L,16 µg/mL
same,Susceptibility to ATM,[1]; ATM/5,"I (I (intermediate, MIC = 16 mg/L))"
same,FD (fold decrease in MIC of ATM with 5),[1]; lowest-FICI combination,2
same,MIC,"[1]; Pseudomonas aeruginosa, read-out: MIC of ATM with 5, 5 at 1 mg/L",16 µg/mL
same,Activity (FICI class),[2]; PA-036,"S (S (Synergy, FICI ≤ 0.5))"
same,Concentrations of ATM and 5 at lowest FICI (ATM/5),[2]; PA-036,4/8
same,Lowest FICI (ATM/5),[2]; PA-036,0.27
same,Minimum concentration of 5 to make sensitive to ATM,[2]; PA-036,4 mg/L
same,Susceptibility to ATM,"[2]; PA-036, ATM/5","S (S (sensitive, MIC ≤ 8 mg/L))"
same,FD (fold decrease in MIC of ATM with 5),"[2]; PA-036, lowest-FICI combination",4
same,MIC,[2]; 5 at 1 mg/L,16 µg/mL
same,MIC,[2]; 5 at 2 mg/L,16 µg/mL
same,MIC,[2]; 5 at 4 mg/L,8 µg/mL
same,MIC,[2]; 5 at 8 mg/L,4 µg/mL
same,MIC,[2]; 5 at 16 mg/L,4 µg/mL
same,MIC,[2]; 5 at 32 mg/L,4 µg/mL
same,MIC,[2]; 5 at 64 mg/L,4 µg/mL
same,Activity (FICI class),[3]; PA-042,"I (I (indifference, 0.5 < FICI ≤ 4))"
same,Concentrations of ATM and 5 at lowest FICI (ATM/5),[3]; PA-042,1/4
same,Lowest FICI (ATM/5),[3]; PA-042,0.51
same,Susceptibility to ATM,"[3]; PA-042, ATM/5","S (S (sensitive, MIC ≤ 8 mg/L))"
same,FD (fold decrease in MIC of ATM with 5),"[3]; PA-042, lowest-FICI combination",2
same,MIC,[3]; 5 at 1 mg/L,2 µg/mL
same,MIC,[3]; 5 at 2 mg/L,2 µg/mL
same,MIC,[3]; 5 at 4 mg/L,1 µg/mL
same,MIC,[3]; 5 at 8 mg/L,1 µg/mL
same,MIC,[3]; 5 at 16 mg/L,1 µg/mL
same,MIC,[3]; 5 at 32 mg/L,1 µg/mL
same,MIC,[3]; 5 at 64 mg/L,1 µg/mL
same,Activity (FICI class),[4]; PA-030,"S (S (Synergy, FICI ≤ 0.5))"
same,Concentrations of ATM and 5 at lowest FICI (ATM/5),[4]; PA-030,16/4
same,Lowest FICI (ATM/5),[4]; PA-030,0.26
same,Minimum concentration of 5 to make sensitive to ATM,[4]; PA-030,16 mg/L
same,Susceptibility to ATM,"[4]; PA-030, ATM/5","S (S (sensitive, MIC ≤ 8 mg/L))"
same,FD (fold decrease in MIC of ATM with 5),"[4]; PA-030, lowest-FICI combination",4
same,MIC,[4]; 5 at 1 mg/L,32 µg/mL
same,MIC,[4]; 5 at 2 mg/L,32 µg/mL
same,MIC,[4]; 5 at 4 mg/L,16 µg/mL
same,MIC,[4]; 5 at 8 mg/L,16 µg/mL
same,MIC,[4]; 5 at 16 mg/L,8 µg/mL
same,MIC,[4]; 5 at 32 mg/L,8 µg/mL
same,MIC,[4]; 5 at 64 mg/L,4 µg/mL
same,Activity (FICI class),[5]; PA-028,"S (S (Synergy, FICI ≤ 0.5))"
same,Concentrations of ATM and 5 at lowest FICI (ATM/5),[5]; PA-028,2/2
same,Lowest FICI (ATM/5),[5]; PA-028,0.25
same,Susceptibility to ATM,"[5]; PA-028, ATM/5","S (S (sensitive, MIC ≤ 8 mg/L))"
same,FD (fold decrease in MIC of ATM with 5),"[5]; PA-028, lowest-FICI combination",4
same,MIC,[5]; 5 at 1 mg/L,4 µg/mL
same,MIC,[5]; 5 at 2 mg/L,2 µg/mL
same,MIC,[5]; 5 at 4 mg/L,2 µg/mL
same,MIC,[5]; 5 at 8 mg/L,2 µg/mL
same,MIC,[5]; 5 at 16 mg/L,1 µg/mL
same,MIC,[5]; 5 at 32 mg/L,1 µg/mL
same,MIC,[5]; 5 at 64 mg/L,1 µg/mL
same,Activity (FICI class),[6]; PA-033,"I (I (indifference, 0.5 < FICI ≤ 4))"
same,Concentrations of ATM and 5 at lowest FICI (ATM/5),[6]; PA-033,1/8
same,Lowest FICI (ATM/5),[6]; PA-033,0.52
same,Susceptibility to ATM,"[6]; PA-033, ATM/5","S (S (sensitive, MIC ≤ 8 mg/L))"
same,FD (fold decrease in MIC of ATM with 5),"[6]; PA-033, lowest-FICI combination",2
same,MIC,[6]; 5 at 1 mg/L,2 µg/mL
same,MIC,[6]; 5 at 2 mg/L,2 µg/mL
same,MIC,[6]; 5 at 4 mg/L,2 µg/mL
same,MIC,[6]; 5 at 8 mg/L,1 µg/mL
same,MIC,[6]; 5 at 16 mg/L,1 µg/mL
same,MIC,[6]; 5 at 32 mg/L,1 µg/mL
same,MIC,[6]; 5 at 64 mg/L,1 µg/mL
same,Activity (FICI class),[7]; PA-039,"S (S (Synergy, FICI ≤ 0.5))"
same,Concentrations of ATM and 5 at lowest FICI (ATM/5),[7]; PA-039,4/8
same,Lowest FICI (ATM/5),[7]; PA-039,0.27
same,Minimum concentration of 5 to make sensitive to ATM,[7]; PA-039,4 mg/L
same,Susceptibility to ATM,"[7]; PA-039, ATM/5","S (S (sensitive, MIC ≤ 8 mg/L))"
same,FD (fold decrease in MIC of ATM with 5),"[7]; PA-039, lowest-FICI combination",4
same,MIC,[7]; 5 at 1 mg/L,16 µg/mL
same,MIC,[7]; 5 at 2 mg/L,16 µg/mL
same,MIC,[7]; 5 at 4 mg/L,8 µg/mL
same,MIC,[7]; 5 at 8 mg/L,4 µg/mL
same,MIC,[7]; 5 at 16 mg/L,4 µg/mL
same,MIC,[7]; 5 at 32 mg/L,4 µg/mL
same,MIC,[7]; 5 at 64 mg/L,4 µg/mL
same,Clinical strains sensitized to ATM (MIC ≤ 8 mg/L) by combination with 5,[8],25 out of 26
same,CPPA isolates in which ATM/5 combination showed synergistic effects,[8]; 22 out of 26 isolates,85%
same,inhibition at 1 µg/mL,[8]; ATM 0.5 mg/L,0%
same,inhibition at 1 µg/mL,[8]; ATM 1 mg/L,4%
same,inhibition at 1 µg/mL,[8]; ATM 2 mg/L,19%
same,inhibition at 1 µg/mL,[8]; ATM 4 mg/L,35%
same,inhibition at 1 µg/mL,[8]; ATM 8 mg/L,46%
same,inhibition at 1 µg/mL,[8]; ATM 16 mg/L,81%
same,inhibition at 1 µg/mL,[8]; ATM 32 mg/L,100%
same,inhibition at 1 µg/mL,[8]; ATM 64 mg/L,100%
same,inhibition at 2 µg/mL,[8]; ATM 0.5 mg/L,4%
same,inhibition at 2 µg/mL,[8]; ATM 1 mg/L,4%
same,inhibition at 2 µg/mL,[8]; ATM 2 mg/L,23%
same,inhibition at 2 µg/mL,[8]; ATM 4 mg/L,38%
same,inhibition at 2 µg/mL,[8]; ATM 8 mg/L,46%
same,inhibition at 2 µg/mL,[8]; ATM 16 mg/L,92%
same,inhibition at 2 µg/mL,[8]; ATM 32 mg/L,100%
same,inhibition at 2 µg/mL,[8]; ATM 64 mg/L,100%
same,inhibition at 4 µg/mL,[8]; ATM 0.5 mg/L,4%
same,inhibition at 4 µg/mL,[8]; ATM 1 mg/L,8%
